Data reported in PubChem BioAssay AID1963972 (Molecular Pharmacology Branch, DTP, NCI, 2024).

Test system: 945468-187-T-J2-PDC spheroids viability
Experiment: Anticancer human tumor 945468-187-T-J2-PDC patient-derived rectal carcinoma cell line growth inhibition [PI3K]
Conditions: spheroids with HUVEC and MSC; for IC50: curve of first compound; for viability, T/C: stronger effect = lower value
Method in brief: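 Stroma-containing spheroids: tumor line, pooled-donor HUVEC, hMSC. Treatments: targeted agents with PI3K inhibitors. Dosing: clinically relevant, half-log spacing, 10 microM ceiling without known Cmax. Read-out: cell viability.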

[1] = second compound 0.0316 µM, first compound 0.0316 µM
[2] = second compound 0.0316 µM, first compound 0.1 µM
[3] = second compound 0.0316 µM, first compound 0.316 µM
[4] = second compound 0.0316 µM, first compound 1 µM
[5] = second compound 0.0316 µM, first compound 3.16 µM
[6] = second compound 0.0316 µM, first compound 10 µM
[7] = second compound 0.1 µM, first compound 0.0316 µM
[8] = second compound 0.1 µM, first compound 0.1 µM
[9] = second compound 0.1 µM, first compound 0.316 µM
[10] = second compound 0.1 µM, first compound 1 µM
[11] = second compound 0.1 µM, first compound 3.16 µM
[12] = second compound 0.1 µM, first compound 10 µM
[13] = second compound 0.316 µM, first compound 0.0316 µM
[14] = second compound 0.316 µM, first compound 0.1 µM
[15] = second compound 0.316 µM, first compound 0.316 µM
[16] = second compound 0.316 µM, first compound 1 µM
[17] = second compound 0.316 µM, first compound 3.16 µM
[18] = second compound 0.316 µM, first compound 10 µM
[19] = second compound 1 µM, first compound 0.0316 µM
[20] = second compound 1 µM, first compound 0.1 µM
[21] = second compound 1 µM, first compound 0.316 µM
[22] = second compound 1 µM, first compound 1 µM
[23] = second compound 1 µM, first compound 3.16 µM
[24] = second compound 1 µM, first compound 10 µM
[25] = second compound 3.16 µM, first compound 0.0316 µM
[26] = second compound 3.16 µM, first compound 0.1 µM
[27] = second compound 3.16 µM, first compound 0.316 µM
[28] = second compound 3.16 µM, first compound 1 µM
[29] = second compound 3.16 µM, first compound 3.16 µM
[30] = second compound 3.16 µM, first compound 10 µM
[31] = second compound 10 µM, first compound 0.0316 µM
[32] = second compound 10 µM, first compound 0.1 µM
[33] = second compound 10 µM, first compound 0.316 µM
[34] = second compound 10 µM, first compound 1 µM
[35] = second compound 10 µM, first compound 3.16 µM
[36] = second compound 10 µM, first compound 10 µM
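Further: spheroids exposed to compounds for seven days before reading.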

## C=CC(=O)N1CCN(c2nc(=O)n(-c3c(C)ccnc3C(C)C)c3nc(-c4c(O)cccc4F)c(F)cc23)C(C)C1 (centres undefined) + Cc1nc(NC(=O)N2CCCC2C(N)=O)sc1-c1ccnc(C(C)(C)C(F)(F)F)c1
Second compound 0.0316 µM
  IC50: > 10 µM
Second compound 0.1 µM
  IC50: > 10 µM
Second compound 0.316 µM
  IC50: > 10 µM
Second compound 1 µM
  IC50: > 10 µM
Second compound 3.16 µM
  IC50: > 10 µM
Second compound 10 µM
  IC50: > 10 µM
[1]
  viability, T/C: 102%
[2]
  viability, T/C: 79.7%
[3]
  viability, T/C: 96.2%
[4]
  viability, T/C: 90.1%
[5]
  viability, T/C: 128%
[6]
  viability, T/C: 113%
[7]
  viability, T/C: 117%
[8]
  viability, T/C: 121%
[9]
  viability, T/C: 97.9%
[10]
  viability, T/C: 97.5%
[11]
  viability, T/C: 95%
[12]
  viability, T/C: 106%
[13]
  viability, T/C: 117%
[14]
  viability, T/C: 156%
[15]
  viability, T/C: 102%
[16]
  viability, T/C: 106%
[17]
  viability, T/C: 101%
[18]
  viability, T/C: 96%
[19]
  viability, T/C: 102%
[20]
  viability, T/C: 111%
[21]
  viability, T/C: 100%
[22]
  viability, T/C: 91.6%
[23]
  viability, T/C: 95%
[24]
  viability, T/C: 104%
[25]
  viability, T/C: 91.2%
[26]
  viability, T/C: 107%
[27]
  viability, T/C: 83.8%
[28]
  viability, T/C: 81.9%
[29]
  viability, T/C: 82.8%
[30]
  viability, T/C: 96.2%
[31]
  viability, T/C: 70.4%
[32]
  viability, T/C: 87.8%
[33]
  viability, T/C: 81.7%
[34]
  viability, T/C: 73.7%
[35]
  viability, T/C: 87.3%
[36]
  viability, T/C: 92.9%

## CC(Cn1ccc(-c2ccc(C#N)c(Cl)c2)n1)NC(=O)c1cc(C(C)O)[nH]n1 (centres undefined) + Cc1nc(NC(=O)N2CCCC2C(N)=O)sc1-c1ccnc(C(C)(C)C(F)(F)F)c1
Second compound 0.0316 µM
  IC50: > 10 µM
Second compound 0.1 µM
  IC50: > 10 µM
Second compound 0.316 µM
  IC50: > 10 µM
Second compound 1 µM
  IC50: > 10 µM
Second compound 3.16 µM
  IC50: > 10 µM
Second compound 10 µM
  IC50: > 10 µM
[1]
  viability, T/C: 118%
[2]
  viability, T/C: 94.1%
[3]
  viability, T/C: 115%
[4]
  viability, T/C: 96.3%
[5]
  viability, T/C: 90.7%
[6]
  viability, T/C: 82.5%
[7]
  viability, T/C: 90.7%
[8]
  viability, T/C: 81%
[9]
  viability, T/C: 90.8%
[10]
  viability, T/C: 100%
[11]
  viability, T/C: 104%
[12]
  viability, T/C: 82.1%
[13]
  viability, T/C: 100%
[14]
  viability, T/C: 95.6%
[15]
  viability, T/C: 109%
[16]
  viability, T/C: 80%
[17]
  viability, T/C: 89.6%
[18]
  viability, T/C: 83.4%
[19]
  viability, T/C: 95.4%
[20]
  viability, T/C: 84.9%
[21]
  viability, T/C: 79.4%
[22]
  viability, T/C: 101%
[23]
  viability, T/C: 79.3%
[24]
  viability, T/C: 84.7%
[25]
  viability, T/C: 81%
[26]
  viability, T/C: 84.2%
[27]
  viability, T/C: 78.4%
[28]
  viability, T/C: 83.5%
[29]
  viability, T/C: 71.7%
[30]
  viability, T/C: 74.9%
[31]
  viability, T/C: 76.9%
[32]
  viability, T/C: 76.3%
[33]
  viability, T/C: 73.3%
[34]
  viability, T/C: 68%
[35]
  viability, T/C: 69%
[36]
  viability, T/C: 61.5%
